Measured values taken from patent US9018391B2, “Inhibitors of beta-secretase” (Boehringer Ingelheim International GmbH, priority 2012, dated 2015).

Key:
[1] = molecular target: truncated human beta-secretase, BACE1 (amino acids 1-454) (Homo sapiens (Human), UniProt P56817); assay: BACE1 Assay (Assay 1), fluorescence quench assay; format: biochemical; settings: pH 4.4
Protocol: The substrate was dissolved at 1 mg/ml in DMSO.
The assay was performed in the presence of OptiMEM™ (supernatant collected over 24 h and cleared from cellular debris by centrifugation) containing the ectodomain of BACE1, 25 μl water containing the desired 2-fold concentration of test compound and 2% DMSO, 1 μM substrate peptide, 20 mM NaOAc, pH 4.4, and 0.04% Triton-X100 in a total assay volume of 50 μl in a 384 well plate. In general, 25 μl of compound dilution were added to the plate followed by the addition of 10 μl of BACE1 containing OptiMEM™ diluted 1:10 in water with 0.2% Triton X-100. The reaction was started with the addition of 15 μl substrate in NaOAc buffer. The reaction was incubated at rt (dark) in an Envision® multilabel reader (Perkin Elmer) and the cleavage of the substrate was recorded as kinetic for […] at ex: 485 nm, em: 538 nm. Blank wells containing no enzyme were included on each plate.
The intensity of fluorescence was regressed against time in order to derive velocities of reaction in all 384 wells. These velocities were used for calculating percent control using an uninhibited control containing 1% DMSO as 100% and a blank control performed in the absence of enzyme as 0%. IC50 values were calculated by fitting percent control vs. test compound concentration using Assay Explorer®.

Human Hepatocytes = assay: In Vitro Hepatocyte Stability Assay (Assay 4); format: in vitro ADME; settings: predicted blood clearance as percent of hepatic blood flow
Protocol: In Vitro Hepatocyte Stability Assay (Assay 4)
The metabolic degradation of test compounds was assayed in a hepatocyte suspension. Cryopreserved hepatocytes were incubated in an appropriate buffer system (e.g., Dulbecco's modified eagle medium plus 3.5 μg glucagon/500 mL, 2.5 mg insulin/500 mL and 3.75 mg/500 mL hydrocortison) containing 5% species serum. Following a 30 min preincubation in an incubator (37° C., 10% CO2), 5 μl of test compound solution (80 μM; from 2 mM in DMSO stock solution diluted 1:25 with medium) were added into 395 μl hepatocyte suspension (cell density in the range 0.25−5×10^6 cells/mL, typically 1×10^6 cells/mL; final concentration of test compound final DMSO concentration […]).
The cells were incubated for six h (incubator, orbital shaker) and samples (25 μl) were taken at 0, 0.5, 1, 2, 4 and 6 h. Samples were transferred into acetonitrile and pelleted by centrifugation (5 min). The supernatant was transferred to a new 96 DeepWell™ plate, evaporated under nitrogen and resuspended. Decline of compound was analyzed by HPLC-MS/MS. CLint (in vitro hepatic intrinsic clearance) was calculated as follows: CLint=Dose/AUC=(C0/CD)/(AUD+Clast/k)×1000/60
C0: initial concentration in the incubation [μM];
CD: cell density of vital cells [cells/mL];
AUD: area under the data [μM×h];
Clast: concentration of last data point [μM];
k: slope of the regression line for compound decline [h^−1].
The calculated in vitro hepatic intrinsic clearance was scaled up to the intrinsic in vivo hepatic clearance (Clint in vivo) and used to predict hepatic in vivo blood clearance (CL) by the use of a liver model (well-stirred model), as follows: CLint,in vivo[mL/min/kg]=(CLint[μL/min/10^6 cells]×hepatocellularity[10^6 cells/g liver]×liver factor [g/kg body weight])/1000 CL[mL/min/kg]=CLint,to vivo×hepatic blood flow[ml/min/kg]/(CLint,in vivo[ml/min/kg]+hepatic blood flow[mL/min/kg])
The in vivo blood clearance was transformed into percent of the hepatic blood flow (% Qh): % Qh=CL[mL/min/kg]/hepatic blood flow[mL/min/kg])×100
Hepatocellularity, human: 1.2×10^7 cells/g liver;
Liver factor, human: 25.7 g/kg body weight;
Hepatic blood flow, human: 21 mL/(min×kg).

hERG channel = hERG channel (Homo sapiens (Human), UniProt Q12809); assay: hERG-Channel Assay (Assay 2), whole-cell patch clamp in HEK293 cells stably transfected with hERG cDNA; format: cell-based; settings: for inhibition at 10 µM: human, HEK293 cells stably transfected with hERG cDNA, pH 7.4, 35° C.
Description: hERG-Channel Assay (Assay 2)
Cells: HEK (human embryonic kidney) 293 cells were stably transfected with hERG cDNA.
Cells were superfused with a bath solution containing (mM): NaCl (137), KCl (4.0), MgCl2 (1.0), CaCl2 (1.8), Glucose (10), HEPES (10), pH 7.4 with NaOH. Patch pipettes were made from borosilicate glass tubing using a horizontal puller and filled with pipette solution containing (mM): K-aspartate (130), MgCl2 (5.0), EGTA (5.0), K2ATP (4.0), HEPES (10.0), pH 7.2 with KOH. Resistance of the microelectrodes was in the range between 2 and 5 MΩ.
Stimulation and Recording:
Membrane currents were recorded using an EPC-10 patch clamp amplifier and PatchMaster software. hERG-mediated membrane currents were recorded at 35° C., using the whole-cell configuration of the patch-clamp technique. Transfected HEK293 cells were clamped at a holding potential of −60 mV and hERG-mediated inactivating tail currents were elicited using a pulse pattern with fixed amplitudes (activation/inactivation: 40 mV for 2000 ms; recovery: −120 mV for 2 ms; ramp to 40 mV in 2 ms; inactivating tail current: 40 mV for 50 ms) repeated at 15 s intervals. During each inter-pulse interval, 4 pulses scaled down by a factor of 0.2 were recorded for a P/n leak subtraction procedure. Rs compensation was employed up to a level that safely allowed recording devoid of ringing.
Compound Preparation and Application:
The different concentrations of the test compounds were applied sequentially on each of the different cells investigated. A steady state level of baseline current was measured for at least 6 sweeps prior to the application of the first test compound concentration.
The test compound was dissolved in DMSO to yield a master stock solution which was diluted further in DMSO to stock solutions needed for the lower concentrations. Final dilutions in extracellular buffer were prepared freshly from these stocks by a 1:1000 dilution step each before starting the experiments.
Peak current amplitudes were measured 3 ms after the ramp to +40 mV. For baseline and each concentration, the peak currents of the three last sweeps before application of the next concentration were averaged. Residual currents (I/I0) were calculated for each cell as the fraction of actual average peak current and average baseline peak current.

[2] = In Vitro Phospholipidosis Assay (Assay 3), Nile red staining; format: cell-based, human; settings: human, first effect concentration, U937 cells, read-out: Phospholipidosis FEC IC50 μM (assay 3)
Protocol: In Vitro Phospholipidosis Assay (Assay 3)
The phospholipidogenic potential of test compounds was assayed using the human hematopoetic U937 cell line. The test principle was to analyze the phospholipid content by staining the cells with the fluorescent dye Nile red.
U937 cells were seeded into cell culture plates at 0.5×10^6 cells/mL in RPMI medium containing 10% FBS, 1% DMSO, and 0.005% gentamicin. The cells were cultivated with or without different concentrations of test compound for 48 h under standard culture conditions.
For harvesting, the cells were centrifuged at 130×g for 4 min and washed once with PBS. Then, 2×0.5 mL cell suspensions were prepared for non-fixed cell measurement (0.5 mL for propidium iodide (PI) viability measurement and 0.5 mL for Nile red measurement).
The remaining cells were fixed with 3.7% formaldehyde for 30 min. After a further centrifugation step, cells were resuspended with 1.3 mL Nile red working solution (1 μg/mL) and incubated for 5 min at rt. The cell suspension was washed twice with 3 mL PBS and centrifuged with 130×g for 4 min. The supernatant was discarded and the cells were resuspended with 0.5 mL PBS and kept for flow cytometry measurement.
For Nile red staining of the 0.5 mL non-fixed cell samples, 50 μL of a ready to use Nile red solution (10 μg/mL) were added per sample. Samples were kept on ice for 5 min. Thereafter, they were washed once with 4 mL PBS (4° C., 250×g for 8 min) and finally resuspended in 400 μL PBS and kept for flow cytometry measurement.
For the viability measurement, 12.5 μL of the ready to use PI solution (10 μg/mL) were added to the 0.5 mL non-fixed cell suspension. After 15 min of incubation on ice, the samples were measured by flow cytometry using a Coulter Epics XL/MCL flow cytometer.
The viability of the cells of each sample was determined by flow cytometry measurement of the PI content at channel 2 (568-590 nm). Cut-off gates for the fluorescence-dependent differentiation between live and dead cells were defined based on the analysis of cell culture medium control samples.
Only samples with a cell viability of >=90% relative to control samples were analyzed for phospholipidosis. Each Nile red sample (non-fixed and fixed samples) was measured by flow cytometry at channel 1 (504-541 nm) and channel 4 (660-680 nm).
For each channel, relative Nile red fluorescence intensity of a test sample was calculated compared to control samples and expressed as a percentage of control fluorescence intensity. The assessment of the phospholipidogenic potential and the first effective concentration (FEC) of a test compound was done manually based on the fluorescence intensities at both wavelengths for the fixed cells, as well as for the non-fixed cells.

Sequence of truncated human beta-secretase, BACE1 (amino acids 1-454) (P56817 22-454): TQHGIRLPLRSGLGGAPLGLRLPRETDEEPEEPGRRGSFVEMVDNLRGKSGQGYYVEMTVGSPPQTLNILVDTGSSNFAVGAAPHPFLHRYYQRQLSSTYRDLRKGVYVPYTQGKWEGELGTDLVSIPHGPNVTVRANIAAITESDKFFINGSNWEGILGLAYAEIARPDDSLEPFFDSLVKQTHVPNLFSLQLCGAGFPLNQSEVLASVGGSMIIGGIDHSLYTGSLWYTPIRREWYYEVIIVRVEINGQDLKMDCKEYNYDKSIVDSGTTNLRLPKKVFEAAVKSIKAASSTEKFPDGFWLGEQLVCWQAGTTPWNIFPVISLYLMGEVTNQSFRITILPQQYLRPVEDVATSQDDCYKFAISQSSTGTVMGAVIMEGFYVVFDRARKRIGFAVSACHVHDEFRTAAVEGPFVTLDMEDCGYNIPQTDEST
Sequence of hERG channel (Q12809 whole entry): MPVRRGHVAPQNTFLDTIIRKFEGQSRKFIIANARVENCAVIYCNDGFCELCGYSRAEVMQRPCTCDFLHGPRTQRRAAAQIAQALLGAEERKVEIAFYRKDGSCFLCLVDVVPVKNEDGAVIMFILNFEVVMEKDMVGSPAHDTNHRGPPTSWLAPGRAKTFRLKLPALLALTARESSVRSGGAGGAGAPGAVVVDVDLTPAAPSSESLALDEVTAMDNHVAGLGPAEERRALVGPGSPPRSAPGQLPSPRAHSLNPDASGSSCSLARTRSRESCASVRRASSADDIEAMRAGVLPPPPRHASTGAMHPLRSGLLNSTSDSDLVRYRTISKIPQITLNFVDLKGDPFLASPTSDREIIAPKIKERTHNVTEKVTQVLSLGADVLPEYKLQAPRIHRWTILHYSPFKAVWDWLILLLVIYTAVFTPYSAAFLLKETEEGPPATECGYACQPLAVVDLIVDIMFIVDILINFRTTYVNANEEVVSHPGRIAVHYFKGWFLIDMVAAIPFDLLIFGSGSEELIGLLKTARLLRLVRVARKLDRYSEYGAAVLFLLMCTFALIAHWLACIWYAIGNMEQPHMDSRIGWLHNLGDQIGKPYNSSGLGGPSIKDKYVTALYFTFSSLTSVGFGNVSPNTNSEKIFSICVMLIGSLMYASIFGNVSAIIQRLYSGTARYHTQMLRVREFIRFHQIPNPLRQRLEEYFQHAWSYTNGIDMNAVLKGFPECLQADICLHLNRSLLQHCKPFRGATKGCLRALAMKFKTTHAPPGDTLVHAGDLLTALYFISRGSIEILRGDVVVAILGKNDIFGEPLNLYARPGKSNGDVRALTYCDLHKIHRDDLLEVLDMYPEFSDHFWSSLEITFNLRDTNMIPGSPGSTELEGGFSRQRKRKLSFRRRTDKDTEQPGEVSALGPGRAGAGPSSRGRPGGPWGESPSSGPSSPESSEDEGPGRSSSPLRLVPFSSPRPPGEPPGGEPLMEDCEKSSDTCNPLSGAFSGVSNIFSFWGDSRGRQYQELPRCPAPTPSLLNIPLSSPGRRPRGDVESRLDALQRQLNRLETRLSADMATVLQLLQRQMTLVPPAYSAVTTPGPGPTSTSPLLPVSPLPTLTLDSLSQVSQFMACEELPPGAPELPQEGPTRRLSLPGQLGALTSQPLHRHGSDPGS

| SMILES | IC50 [1] [nM] | In vitro Human Hepatocytes % Qh @ 1 μM (assay 4) (Human Hepatocytes) [% Qh] | inhibition at 10 µM (hERG channel) [%] | IC50 at 48 h [2] [µM] | % Inhibition hERG @ 10 μM (assay 2) (hERG channel; 35° C.) [%] |
| --- | --- | --- | --- | --- | --- |
| C[C@@H]1C[C@@]2(Cc3ccc(C#N)cc3[C@]23N=C(N)N(CC(C)(C)Cl)C3=O)C[C@H](C)[C@H]1O [Example 3] | 3 | 3.1 | 20 | 200 | – |
| CO[C@H]1CC[C@]2(CC1)Cc1ccc(CCC(C)C)cc1C21N=C(N)N(CC(F)(F)F)C1=O (stereo partly drawn) [reference compound] | 3.5 | 88 | 89 | – | – |
| CO[C@H]1CC[C@]2(CC1)Cc1ccc(OCC3CC3)cc1C21N=C(N)N(CCC(F)(F)F)C1=O (stereo partly drawn) [reference compound] | 8.3 | – | 87 | – | – |
| C[C@@H]1C[C@@]2(Cc3ccc(C#N)cc3[C@]23N=C(N)N(CC2CC(F)(F)C2)C3=O)C[C@H](C)[C@H]1O.O=C(O)C(F)(F)F [Example 14] | 4.5 | 5.2 | 27 | 200 | – |
| Cc1cc(CN2C(=O)[C@]3(N=C2N)c2cc(C#N)ccc2C[C@@]32C[C@@H](C)[C@H](O)[C@@H](C)C2)ccn1.O=C(O)C(F)(F)F [Example 16] | 9.4 | 19 | 1.4 | 200 | – |
| COC1CCC2(CC1)Cc1ccc(C#CC3CC3)cc1C21N=C(N)N(Cc2ncco2)C1=O (stereo not drawn) [drawing 13, reference compound] | 5.1 | 8.5 | 60 | – | – |
| C[C@@H]1C[C@@]2(Cc3ccc(C#N)cc3[C@]23N=C(N)N(CC2CC2)C3=O)C[C@H](C)[C@H]1O [Example 10] | 10.6 | 0 | 33 | > 100 | – |
| COC1CCC2(CC1)Cc1ccc(C#N)cc1[C@]21N=C(N)N(C)C1=O (stereo partly drawn) [drawing 10, reference compound] | – | 14 | 90 | 400 | – |
| C[C@@H]1C[C@@]2(Cc3ccc(NC(=O)C(C)(C)F)cc3[C@]23N=C(N)N(CC(C)(C)F)C3=O)C[C@H](C)[C@H]1O [Example 6] | 6.3 | 11 | 1.8 | 400 | – |
| COC1CCC2(CC1)Cc1ccc(C#CC3CC3)cc1C21N=C(N)N(Cc2ncco2)C1=O (stereo not drawn) [drawing 17, reference compound] | 5.1 | 8.5 | – | – | 60 |
| COCCCOc1ccc2c(c1)C1(N=C(N)N(CC(F)F)C1=O)[C@]1(CC[C@H](OC)CC1)C2 (stereo partly drawn) [reference compound] | 7.3 | 43 | 36 | 50 | – |
| C[C@@H]1C[C@@]2(Cc3ccc(C#N)cc3[C@]23N=C(N)N(CCc2ccncc2)C3=O)C[C@H](C)[C@H]1O.O=C(O)C(F)(F)F [Example 15] | 9.7 | 22.9 | 15.2 | 800 | – |
| COC1CCC2(CC1)Cc1ccc(C#CC3CC3)cc1C21N=C(N)N(Cc2cncnc2)C1=O (stereo not drawn) [reference compound] | 1.1 | 36 | 60 | 25 | – |
| C[C@H]1C[C@@]2(CC[C@@H]1O)Cc1ccc(C#N)cc1[C@]21N=C(N)N(CC2CC(F)(F)C2)C1=O [Example 13] | 8.7 | 4.2 | 12 | 200 | – |
| COC1CCC2(CC1)Cc1ccc(Cl)cc1[C@]21N=C(N)N(C)C1=O (stereo partly drawn) [reference compound] | – | – | 58 | 100 | – |
| COCC(C)N1C(=O)C2(N=C1N)c1cc(C#N)ccc1CC21CCC(OC)CC1 (stereo not drawn) [reference compound] | 256 | – | – | – | – |
| C[C@@H]1CC2(Cc3ccc(Cl)cc3[C@]23N=C(N)N(Cc2ncccn2)C3=O)C[C@H](C)[C@H]1O (stereo partly drawn) [Example 11] | 14.6 | 0 | 19 | 200 | – |
